# Reference: ChEMBL document CHEMBL1201862, “PubChem BioAssay data set” (2004)
#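 Interpolation was linear, between the two tested concentrations surrounding the appropriate level; five concentrations were tested over 48 hours in 96-well plates. Here, GI50 denotes the concentration required for 50% inhibition of growth.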 Active and inactive are the calls of the source. Cut-off read from the data, not from the text of the source: active = GI50 up to about 1.1 µM and inactive = higher.
# Experiments:
# Assay in all cases: NCI tumour cell line growth inhibition, 48 h
# IGROV-1 = system: IGROV-1
# CCRF-CEM = system: CCRF-CEM
# K562 = system: K562
# T47D = system: T47D
# MDA-MB-231 = system: MDA-MB-231
# PC-3 = system: PC-3
# OVCAR-8 = system: OVCAR-8
# MDA-MB-435 = system: MDA-MB-435
# ACHN = system: ACHN
# SK-OV-3 = system: SK-OV-3
# A549 = system: A549
# HCT-15 = system: HCT-15
# 786-0 = system: 786-0
# MDA-N = system: MDA-N
# SNB-19 = system: SNB-19
# Malme-3M = system: Malme-3M
# UACC-257 = system: UACC-257
# NCI-H23 = system: NCI-H23
# RPMI-8226 = system: RPMI-8226
# SNB-75 = system: SNB-75
# TK-10 = system: TK-10
# SF-268 = system: SF-268
# DU-145 = system: DU-145
# SN12C = system: SN12C
# HT-29 = system: HT-29
# LOX IMVI = system: LOX IMVI
# M14 = system: M14
# HCT-116 = system: HCT-116
# BT-549 = system: BT-549
# HOP-62 = system: HOP-62
# CAKI-1 = system: CAKI-1
# SF-539 = system: SF-539
# SF-295 = system: SF-295
# OVCAR-5 = system: OVCAR-5
# MCF7 = system: MCF7
# SW-620 = system: SW-620
# UACC-62 = system: UACC-62
# NCI-H226 = system: NCI-H226
# Hs-578T = system: Hs-578T
# UO-31 = system: UO-31
# HL-60 = system: HL-60
# NCI-H460 = system: NCI-H460
# COLO 205 = system: COLO 205
# A498 = system: A498
# SK-MEL-5 = system: SK-MEL-5
# SK-MEL-2 = system: SK-MEL-2
# EKVX = system: EKVX
# KM12 = system: KM12
# HOP-92 = system: HOP-92
# SK-MEL-28 = system: SK-MEL-28
# HCC 2998 = system: HCC 2998
# OVCAR-3 = system: OVCAR-3
# SR = system: SR
# U-251 = system: U-251
# MOLT-4 = system: MOLT-4
# NCI-H522 = system: NCI-H522
# RXF 393 = system: RXF 393
smiles,measurement,setting,value
CCC1C(c2ccccc2O)c2cc3c(cc2OC1N1CCOCC1)OCO3 (configuration not stated),GI50,IGROV-1,15.8 µM (inactive)
same,GI50,CCRF-CEM,13.9 µM (inactive)
same,GI50,K562,11.5 µM (inactive)
same,GI50,T47D,13.2 µM (inactive)
same,GI50,MDA-MB-231,16.8 µM (inactive)
same,GI50,PC-3,12.5 µM (inactive)
same,GI50,OVCAR-8,20.8 µM (inactive)
same,GI50,MDA-MB-435,15.6 µM (inactive)
same,GI50,ACHN,13.3 µM (inactive)
same,GI50,SK-OV-3,22.2 µM (inactive)
same,GI50,A549,14.4 µM (inactive)
same,GI50,HCT-15,9.4 µM
same,GI50,786-0,21.1 µM (inactive)
same,GI50,MDA-N,12.8 µM (inactive)
same,GI50,SNB-19,15.3 µM (inactive)
same,GI50,Malme-3M,13 µM (inactive)
same,GI50,UACC-257,16 µM (inactive)
same,GI50,NCI-H23,18.2 µM (inactive)
same,GI50,RPMI-8226,13.9 µM (inactive)
same,GI50,SNB-75,8.53 µM (inactive)
same,GI50,TK-10,13.9 µM (inactive)
same,GI50,SF-268,14.7 µM (inactive)
same,GI50,DU-145,14.8 µM (inactive)
same,GI50,SN12C,15.7 µM (inactive)
same,GI50,HT-29,13.6 µM (inactive)
same,GI50,LOX IMVI,14.9 µM (inactive)
same,GI50,M14,15.1 µM (inactive)
same,GI50,HCT-116,13.6 µM (inactive)
same,GI50,BT-549,15.6 µM (inactive)
same,GI50,HOP-62,15.4 µM (inactive)
same,GI50,CAKI-1,16.6 µM (inactive)
same,GI50,SF-539,16.3 µM (inactive)
same,GI50,SF-295,14.9 µM (inactive)
same,GI50,OVCAR-5,14.9 µM (inactive)
same,GI50,MCF7,14.4 µM (inactive)
same,GI50,SW-620,15.9 µM (inactive)
same,GI50,UACC-62,13.1 µM (inactive)
same,GI50,NCI-H226,15.7 µM (inactive)
same,GI50,Hs-578T,15.9 µM (inactive)
same,GI50,UO-31,13.9 µM (inactive)
same,GI50,HL-60,18.2 µM (inactive)
same,GI50,NCI-H460,14.3 µM (inactive)
same,GI50,COLO 205,15.4 µM (inactive)
same,GI50,A498,14.3 µM (inactive)
same,GI50,SK-MEL-5,16.7 µM (inactive)
same,GI50,SK-MEL-2,15.5 µM (inactive)
same,GI50,EKVX,12.8 µM (inactive)
same,GI50,KM12,13 µM (inactive)
same,GI50,HOP-92,13 µM (inactive)
same,GI50,SK-MEL-28,17.6 µM (inactive)
same,GI50,HCC 2998,17.3 µM (inactive)
same,GI50,OVCAR-3,12.5 µM (inactive)
same,GI50,SR,14.5 µM (inactive)
same,GI50,U-251,13.6 µM (inactive)
same,GI50,MOLT-4,6.44 µM (inactive)
same,GI50,NCI-H522,12.9 µM (inactive)
same,GI50,RXF 393,13.3 µM (inactive)
